The values below are quoted from earlier work in US20130039957A1, “CONTROLLED RELEASE PHARMACEUTICAL COMPOSITIONS OF BRIVARACETAM” (LUPIN LIMITED, priority 2010, published 2013).

Converted amounts (≈) assume the structure as drawn.

The target of series [1] is synaptic vesicle protein 2A (SV2A) (Homo sapiens, UniProt Q7L0J3). Particulars: preclinical studies.
Series [2] relates to neuronal voltage-dependent sodium channels. Particulars: preclinical studies.
For series [3] the following is noted: healthy subjects.

Sequence of synaptic vesicle protein 2A (SV2A) (Q7L0J3 whole entry, species assumed): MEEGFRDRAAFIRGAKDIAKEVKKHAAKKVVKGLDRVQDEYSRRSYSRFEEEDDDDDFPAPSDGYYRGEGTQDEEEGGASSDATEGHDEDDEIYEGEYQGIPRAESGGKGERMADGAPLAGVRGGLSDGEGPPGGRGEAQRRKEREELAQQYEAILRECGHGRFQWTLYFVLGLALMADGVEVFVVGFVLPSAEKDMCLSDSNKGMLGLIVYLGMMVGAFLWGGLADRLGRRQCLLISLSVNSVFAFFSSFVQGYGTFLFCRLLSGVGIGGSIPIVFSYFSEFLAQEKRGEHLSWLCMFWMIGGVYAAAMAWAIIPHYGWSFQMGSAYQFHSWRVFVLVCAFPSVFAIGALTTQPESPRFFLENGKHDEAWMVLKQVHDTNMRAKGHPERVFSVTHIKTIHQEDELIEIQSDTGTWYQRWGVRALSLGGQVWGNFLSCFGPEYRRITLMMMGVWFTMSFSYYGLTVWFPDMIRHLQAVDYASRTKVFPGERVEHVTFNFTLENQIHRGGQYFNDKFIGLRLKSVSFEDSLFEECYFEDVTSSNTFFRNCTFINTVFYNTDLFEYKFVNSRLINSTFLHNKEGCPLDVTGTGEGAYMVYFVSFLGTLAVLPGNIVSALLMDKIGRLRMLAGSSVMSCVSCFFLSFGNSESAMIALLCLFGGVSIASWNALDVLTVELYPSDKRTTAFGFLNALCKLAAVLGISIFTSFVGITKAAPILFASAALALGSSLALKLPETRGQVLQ

As for `CCC[C@@H]1CC(=O)N([C@@H](CC)C(N)=O)C1` [Brivaracetam], the water solubility was 700 mg/mL (≈ 3300 mM). For the same compound, the “affinity for synaptic vesicle protein 2A (SV2A)” value in series [1] is listed as “showed affinity”. Moreover, the “inhibitory activity at neuronal voltage-dependent sodium channels” value in series [2] was “has inhibitory activity”. Also, the half life in series [3] is 7.6 ± 1.7 h.
